According to ChEMBL document CHEMBL1154628, “Discovery and optimization of substituted 1-(1-phenyl-1H-pyrazol-3-yl)methanamines as potent and efficacious type II calcimimetics” (J Med Chem, 2009):
pEC50: −log10 of the molar value. Calls of active or inactive are those of the source. The calls are words filed in the database; no cut-off is given here.

What was measured:
[1] = target: T1, Extracellular calcium-sensing receptor (Homo sapiens, UniProt P41180); assay: Activity at human CaSR expressed in HEK293 cells assessed as calcium release by FLIPR assay; assay type: functional, cell-based
T1 sequence (P41180 whole entry): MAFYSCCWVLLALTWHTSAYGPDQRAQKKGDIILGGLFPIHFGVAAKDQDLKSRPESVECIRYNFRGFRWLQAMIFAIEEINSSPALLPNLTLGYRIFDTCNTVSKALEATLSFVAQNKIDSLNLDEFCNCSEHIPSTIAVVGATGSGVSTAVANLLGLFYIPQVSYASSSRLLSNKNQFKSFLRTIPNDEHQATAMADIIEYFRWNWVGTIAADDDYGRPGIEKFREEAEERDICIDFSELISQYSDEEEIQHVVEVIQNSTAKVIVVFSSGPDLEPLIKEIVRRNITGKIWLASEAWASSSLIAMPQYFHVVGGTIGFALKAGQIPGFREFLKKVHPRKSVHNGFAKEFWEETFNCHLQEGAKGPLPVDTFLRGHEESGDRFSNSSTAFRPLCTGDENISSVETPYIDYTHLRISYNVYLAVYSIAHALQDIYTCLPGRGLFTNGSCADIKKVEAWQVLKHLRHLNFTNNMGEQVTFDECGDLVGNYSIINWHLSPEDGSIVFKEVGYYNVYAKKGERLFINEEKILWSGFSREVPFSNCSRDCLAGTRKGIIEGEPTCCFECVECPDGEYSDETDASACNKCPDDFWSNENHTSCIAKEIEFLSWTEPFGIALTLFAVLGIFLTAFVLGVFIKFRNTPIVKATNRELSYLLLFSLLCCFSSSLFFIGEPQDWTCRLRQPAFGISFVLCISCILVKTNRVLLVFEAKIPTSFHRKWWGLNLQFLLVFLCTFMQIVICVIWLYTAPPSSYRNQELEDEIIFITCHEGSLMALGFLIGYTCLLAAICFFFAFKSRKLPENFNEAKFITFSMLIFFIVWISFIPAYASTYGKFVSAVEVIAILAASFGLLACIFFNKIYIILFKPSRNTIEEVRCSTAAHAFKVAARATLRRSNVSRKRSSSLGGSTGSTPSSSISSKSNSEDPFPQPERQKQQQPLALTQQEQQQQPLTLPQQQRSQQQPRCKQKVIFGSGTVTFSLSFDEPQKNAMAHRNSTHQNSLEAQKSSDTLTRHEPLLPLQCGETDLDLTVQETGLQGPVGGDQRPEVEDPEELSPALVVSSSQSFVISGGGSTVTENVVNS

Rattus norvegicus [2] = assay: Oral bioavailability in Sprague-Dawley rat at 2 mg/kg; assay type: ADME, organism-based; settings: in vivo
[3] = Mean residence time in Sprague-Dawley rat at 0.5 mg/kg, iv; assay type: ADME, organism-based; parameters: dose 0.5 mg/kg, route intravenous; settings: in vivo
Rattus norvegicus [4] = assay: Clearance in Sprague-Dawley rat at 0.5 mg/kg, iv; assay type: ADME, organism-based; parameters: dose 0.5 mg/kg, route intravenous; settings: in vivo
Rattus norvegicus [5] = assay: AUC in Sprague-Dawley rat at 2 mg/kg, po; assay type: ADME, organism-based, Plasma; parameters: dose 2 mg/kg, route oral; settings: in vivo
[6] = Volume of distribution at steady state in Sprague-Dawley rat at 0.5 mg/kg, iv; assay type: ADME, organism-based; parameters: dose 0.5 mg/kg, route intravenous; settings: in vivo, read-out: Vdss
Rattus norvegicus [7] = assay: Inhibition of hyperparathyroidism in Sprague-Dawley rat pharmacodynamic model assessed as PTH levels at 3 mg/kg, po; assay type: functional
Rattus norvegicus [8] = assay: Inhibition of hyperparathyroidism in Sprague-Dawley rat pharmacodynamic model assessed as decrease in PTH levels at 30 mg/kg, po; assay type: functional, organism-based; parameters: dose 30 mg/kg; settings: Thyroid gland
Rattus norvegicus [9] = assay: Cmax in Sprague-Dawley rat at 2 mg/kg, po; assay type: ADME, organism-based; parameters: dose 2 mg/kg, route oral; settings: in vivo

Row | Compound | pEC50 [1] | also measured
1 | C[C@@H](NCc1nc(-c2ccccc2)cn1C)c1ccccc1 | < 5.30 | 
2 | CC(C)[C@@H](N[C@H](C)c1ccccc1)c1ccn(-c2ccc(C(F)(F)F)cc2)n1 | 5.63 | 
3 | CC[C@@H](N[C@H](C)c1ccccc1)c1ccn(-c2ccc(C(F)(F)F)cc2)n1 | 5.93 | 
4 | C[C@@H](NCc1nc(-c2ccccc2)cs1)c1ccccc1 | < 5.30 | 
5 | C[C@@H](NCc1ccn(-c2ccccc2)n1)c1ccccc1 | 5.80 | 
6 | C[C@@H](NCc1cnc(-c2ccccc2)s1)c1ccccc1 | < 5.30 | 
7 | C[C@@H](NCc1nc(-c2ccccc2)co1)c1ccccc1 | < 5.30 | 
8 | COc1cccc([C@@H](C)NCCCc2ccccc2Cl)c1 [TECALCET] | 6.71 | F (Rattus norvegicus [2]): 5%; MRT [3]: 1.74 h; Activity (Rattus norvegicus [8]): Active; CL (Rattus norvegicus [4]): 65 mL/min/kg; AUC (Rattus norvegicus [5]): 22 ng·h/mL; Vd [6]: 6.8 L/kg; Cmax (Rattus norvegicus [9]): 4.2 ng/mL
9 | C[C@@H](NCc1nc(-c2ccccc2)c[nH]1)c1ccccc1 | < 5.30 | 
10 | C[C@@H](N[C@H](C)c1ccn(-c2ccc(C(F)(F)F)cc2)n1)c1ccccc1 | 6.63 | 

Continued, in another order:

Row | pEC50 [1] | Compound | also measured
11 | 6.83 | C[C@@H](N[C@H](C)c1ccn(-c2ccc(C(F)(F)F)cc2)n1)c1cccc(F)c1 | 
12 | 5.72 | COc1cc([C@@H](C)N[C@H](C)c2cccc(Cl)c2)nn1-c1ccc(C(=O)O)cc1 | 
13 | 7.24 | COc1cc([C@@H](C)N[C@H](C)c2cccc(Cl)c2)nn1-c1cccc(Cl)c1 | 
14 | 7.64 | COc1cc([C@@H](C)N[C@H](C)c2cccc(Cl)c2)nn1-c1ccc(Br)cc1 | F (Rattus norvegicus [2]): 24%; MRT [3]: 11.8 h; CL (Rattus norvegicus [4]): 21.7 mL/min/kg; AUC (Rattus norvegicus [5]): 444 ng·h/mL; Vd [6]: 7 L/kg; Activity (Rattus norvegicus [7]): <3 pg/mL
15 | < 5.30 | COc1cc([C@@H](C)N[C@H](C)c2cccc(Cl)c2)nn1-c1ccc(-c2nnn[nH]2)cc1 | 
16 | 7.04 | C[C@@H](N[C@H](C)c1ccn(-c2ccc(C(F)(F)F)cc2)n1)c1cccc(Cl)c1 | 
17 | 7.39 | COc1cc([C@@H](C)N[C@H](C)c2cccc(Cl)c2)nn1-c1ccc(C(F)(F)F)cc1 | 
18 | 7.15 | COc1cc([C@@H](C)N[C@H](C)c2ccccc2)nn1-c1ccc(C(F)(F)F)cc1 | 
